# Results reported in patent publication US20020049161A1, “Pharmaceutical combination preparations containing erythropoietin and iron preparations” (Roche Diagnostics GmbH, priority 1995, published 2002).
# Key:
# hemodialysis patients = experiment: Iron status and safety diagnostic parameters in hemodialysis patients under rhEPO/iron therapy; assay type: in vivo, human
# Procedure: When conducting the combination therapy using the combination preparation according to the invention, the maximum weekly dosage can be concluded in a quite simple fashion by determining the diagnostic parameters for the iron status, particularly the iron, transferrin, transferrin saturation and ferritin parameters.
# Preferably, the ferritin concentration is at least 125 μg/l, particularly at least 150 μg/l, and up to 270 μg/l at maximum, especially up to 250 μg/l at maximum. Advantageously, the iron concentration is between 10-20 μmol/l (corresponding to about 56-112 μg/dl) and the transferrin concentration between […] (corresponding to about 240-480 mg/dl) The transferrin saturation is defined as the ratio of serum/plasma iron concentration to serum/plasma transferrin concentration (multiplied by a correction factor of 1.41). It is a non-dimensional figure not depending on the patient's hydration condition. The transferrin saturation is calculated according to the formula: […]
# In order to safely exclude undesirable side effects, the acute phase parameter CRP (5 mg/l±100%) [CRP=C reactive protein) is measured, with CRP currently being regarded as the best protein marker of inflammatory reactions. In addition, the liver parameters GPT (glutamate pyruvate transaminase), GOT (glutamate oxalic acetate transaminase) and γ-GT (γ-glutamyltransferase) may be determined, which should fall within the following ranges: (determination at 37° C.): GPT: <50 U/l; GOT: <50 U/l; γ-GT: <40 U/l, with the GPT parameter currently ranking first in liver diagnostics.
# The determination of the iron status is effected by analyzing samples of body fluids (blood, serum, urine, etc.) from the patients in question. For the determination of the iron status, particularly the concentrations of iron, transferrin, ferritin, transferrin receptor, the transferrin saturation, and the transferrin/ferritin saturation are determined. With hemodialysis patients, the iron, transferrin, ferritin and transferrin saturation parameters are preferably determined according to per se common analytical methods. […]
# anemia patients = experiment: Iron status and safety diagnostic parameters in anemia patients under rhEPO/iron therapy; assay type: in vivo, human
# Procedure: When conducting the combination therapy using the combination preparation of the invention to treat anemia, the weekly maximum dosage can be concluded in a quite simple fashion by determining the diagnostic parameters transferrin receptor (TfR), ferritin and the ratio of TfR to ferritin.
# Advantageously, the TfR concentration is between 1500-2500 μg/l. The concentration ratio of TfR (in μg/l) to ferritin (in μg/l) is particularly in the range of 15-35, preferably at values above 20.
# In order to safely exclude undesirable side effects, the acute phase parameter CRP (2-10 mg/l) [CRP=C-reactive protein) is measured. In addition, the liver parameter GPT (glutamate pyruvate transaminase) may be determined, which should be <50 U/l at 37° C. (<30 U/l at 25° C.). Furthermore, the hematological control parameters such as hematocrit (fraction of red blood cells in total volume) or the increase in hypochromic erythrocytes may optionally be utilized, wherein the reticulocytes may increase to a value of up to 15/1000-30/1000. The typical hemoglobin concentration is about 12-18 g/dl.
# The determination of the iron status is effected by analyzing samples of body fluids (blood, serum, urine, etc.) from the patients in question. For the determination of the iron status, particularly the concentrations of iron, transferrin, ferritin, transferrin receptor, the transferrin saturation, and the transferrin/ferritin saturation are determined. With hemodialysis patients, the iron, transferrin, ferritin and transferrin saturation parameters are preferably determined according to per se common analytical methods. In particular, the determination of the transferrin/ferritin saturation value is relevant. In the case of anemia patients whose anemia has not been caused by hemodialysis, the ferritin concentration and the concentration of transferrin receptor are determined above all. In particular, the determination of the ratio of transferrin receptor to ferritin (transferrin receptor/ferritin saturation value) is relevant.
# In addition, the serum ferritin level is determined. Ferritin is an iron-storing glycoprotein of which tissue-typical isoferritins are existing and which can be determined in the serum by immunological means, e.g., by a radioimmunoassay (RIA) or by turbidimetric methods as well. The ferritin value is a measure for iron storage in the tissue. In most of the laboratories, the normal range is between 30 and 300 ng/ml, and the geometrical mean value is 88 in males and 49 in females. The serum ferritin values are in close relationship to the total iron reserve of the body. Therefore, decreased serum ferritin levels are found only in case of iron deficiency. Increased levels are found in case of iron overloading. Likewise, increased serum ferritin levels are found in case of liver lesions or in association with some types of neoplasia, where ferritins may be bound to acute phase proteins. Similarly, the serum transferrin receptor may be determined using an enzyme-enhanced immune absorption test (enzyme-linked immunosorbent assay=ELISA), wherein a monoclonal antibody against the soluble receptor is used. The reference range is between 0.5-3 mg/l. The level is increased in case of slight deficiency in the iron depots. The concentrations of specific erythrocyte ferritins may be determined in order to characterize the iron depots, particularly if the serum ferritin cannot be utilized in case of tissue lesions or due to acute phase reactions.
# [1] = Patient B (hemodialysis), 5,000 U rhEPO three times a week over 3 weeks
# [2] = Patient E (anemia), 5,000 U rhEPO three times a week over 3 weeks
# [3] = Patient F (anemia), iron infusions omitted, within 3 weeks
substance,measurement,setting,value
recombinant human erythropoietin [rhEPO],ferritin value decreased to,hemodialysis patients; [1],< 500 µg/L
same,transferrin saturation decreased to,hemodialysis patients; [1],< 25%
same,ferritin values lowered to,"hemodialysis patients; Patient C (hemodialysis), iron infusions omitted, within 3 weeks",500 µg/L
same,ferritin value decreased to,anemia patients; [2],< 500 µg/L
same,transferrin receptor value increased to,anemia patients; [2],above 1500 μg/l
same,transferrin saturation decreased to,anemia patients; [2],< 25%
same,ferritin values lowered to,anemia patients; [3],< 500 µg/L
same,transferrin receptor values increased to,anemia patients; [3],above 1500 μg/l
